Source: ChEMBL document CHEMBL1146419, “Antimicrobial and cytotoxic phenolic glycoside esters from the New Zealand tree Toronia toru” (J Nat Prod, 1997)
In brackets after ≈: the same amount, converted by molar mass.

Test system: Escherichia coli
Experiment: Antimicrobial activity against Escherichia coli at 15 ug/disk
Type: functional
Conditions: read-out: IZ

SMILES | zone of inhibition at 15 µg/disc [mm]
C=C1CCOC1=O [TULIPALINE A] | 0

Test system: Escherichia coli
Experiment: Antimicrobial activity against Escherichia coli at 60 ug/disk
Type: functional
Conditions: read-out: IZ

SMILES | zone of inhibition at 60 µg/disc [mm]
Oc1ccc(O)cc1 [HYDROQUINONE] | 0
C=C(CCO)C(=O)OC[C@H]1O[C@@H](Oc2ccc(O)cc2)[C@H](O)[C@@H](O)[C@@H]1O | 0
C=C(C(=O)OC[C@H]1O[C@@H](Oc2ccc(O)cc2)[C@H](O)[C@@H](O)[C@@H]1O)[C@@H](O)CO | 2
C=C1CCOC1=O [TULIPALINE A] | 0

Test system: not listed separately
Experiment: Cytotoxicity against african green monkey BSC1 cells at 30 ug/disk
Type: cell-based
Conditions: chlorocebus aethiops, bsc-1

SMILES | Activity [%]
Oc1ccc(O)cc1 [HYDROQUINONE] | 75
C=C(CCO)C(=O)OC[C@H]1O[C@@H](Oc2ccc(O)cc2)[C@H](O)[C@@H](O)[C@@H]1O | 100
C=C(C(=O)OC[C@H]1O[C@@H](Oc2ccc(O)cc2)[C@H](O)[C@@H](O)[C@@H]1O)[C@@H](O)CO | 50
C=C1CCOC1=O [TULIPALINE A] | 100

Test system: Bacillus subtilis
Experiment: Antimicrobial activity against Bacillus subtilis at 120 ug/disk
Type: functional
Conditions: read-out: IZ

SMILES | zone of inhibition at 120 µg/disc [mm]
Oc1ccc(O)cc1 [HYDROQUINONE] | 9
C=C(CCO)C(=O)OC[C@H]1O[C@@H](Oc2ccc(O)cc2)[C@H](O)[C@@H](O)[C@@H]1O | 0
C=C(C(=O)OC[C@H]1O[C@@H](Oc2ccc(O)cc2)[C@H](O)[C@@H](O)[C@@H]1O)[C@@H](O)CO | 5
OC[C@H]1O[C@@H](Oc2ccc(O)cc2)[C@H](O)[C@@H](O)[C@@H]1O [ARBUTIN] | 0
C=C1CCOC1=O [TULIPALINE A] | 10

Test system: Trichophyton mentagrophytes
Experiment: Antimicrobial activity against Trichophyton mentagrophytes at 120 ug/disk
Type: functional
Conditions: read-out: IZ

SMILES | zone of inhibition at 120 µg/disc [mm]
Oc1ccc(O)cc1 [HYDROQUINONE] | 10
C=C(CCO)C(=O)OC[C@H]1O[C@@H](Oc2ccc(O)cc2)[C@H](O)[C@@H](O)[C@@H]1O | 0
C=C(C(=O)OC[C@H]1O[C@@H](Oc2ccc(O)cc2)[C@H](O)[C@@H](O)[C@@H]1O)[C@@H](O)CO | 5
OC[C@H]1O[C@@H](Oc2ccc(O)cc2)[C@H](O)[C@@H](O)[C@@H]1O [ARBUTIN] | 0
C=C1CCOC1=O [TULIPALINE A] | 8

Test system: Pseudomonas aeruginosa
Experiment: Antimicrobial activity against Pseudomonas aeruginosa at 30 ug/disk
Type: functional
Conditions: read-out: IZ

SMILES | zone of inhibition at 30 µg/disc [mm]
Oc1ccc(O)cc1 [HYDROQUINONE] | 2
C=C(CCO)C(=O)OC[C@H]1O[C@@H](Oc2ccc(O)cc2)[C@H](O)[C@@H](O)[C@@H]1O | 0
C=C(C(=O)OC[C@H]1O[C@@H](Oc2ccc(O)cc2)[C@H](O)[C@@H](O)[C@@H]1O)[C@@H](O)CO | 0
C=C1CCOC1=O [TULIPALINE A] | 0

Test system: Pseudomonas aeruginosa
Experiment: Antimicrobial activity against Pseudomonas aeruginosa at 60 ug/disk
Type: functional
Conditions: read-out: IZ

SMILES | zone of inhibition at 60 µg/disc [mm]
Oc1ccc(O)cc1 [HYDROQUINONE] | 3
C=C(CCO)C(=O)OC[C@H]1O[C@@H](Oc2ccc(O)cc2)[C@H](O)[C@@H](O)[C@@H]1O | 0
C=C(C(=O)OC[C@H]1O[C@@H](Oc2ccc(O)cc2)[C@H](O)[C@@H](O)[C@@H]1O)[C@@H](O)CO | 1
C=C1CCOC1=O [TULIPALINE A] | 0

Test system: Bacillus subtilis
Experiment: Antimicrobial activity against Bacillus subtilis at 30 ug/disk
Type: functional
Conditions: read-out: IZ

SMILES | zone of inhibition at 30 µg/disc [mm]
Oc1ccc(O)cc1 [HYDROQUINONE] | 3
C=C(CCO)C(=O)OC[C@H]1O[C@@H](Oc2ccc(O)cc2)[C@H](O)[C@@H](O)[C@@H]1O | 0
C=C(C(=O)OC[C@H]1O[C@@H](Oc2ccc(O)cc2)[C@H](O)[C@@H](O)[C@@H]1O)[C@@H](O)CO | 0
C=C1CCOC1=O [TULIPALINE A] | 0

Test system: Escherichia coli
Experiment: Antimicrobial activity against Escherichia coli at 30 ug/disk
Type: functional
Conditions: read-out: IZ

SMILES | zone of inhibition at 30 µg/disc [mm]
Oc1ccc(O)cc1 [HYDROQUINONE] | 0
C=C(CCO)C(=O)OC[C@H]1O[C@@H](Oc2ccc(O)cc2)[C@H](O)[C@@H](O)[C@@H]1O | 0
C=C(C(=O)OC[C@H]1O[C@@H](Oc2ccc(O)cc2)[C@H](O)[C@@H](O)[C@@H]1O)[C@@H](O)CO | 0
C=C1CCOC1=O [TULIPALINE A] | 0

Test system: Trichophyton mentagrophytes
Experiment: Antimicrobial activity against Trichophyton mentagrophytes at 15 ug/disk
Type: functional
Conditions: read-out: IZ

SMILES | zone of inhibition at 15 µg/disc [mm]
C=C1CCOC1=O [TULIPALINE A] | 0

Test system: P388
Experiment: Cytotoxicity against mouse P388 cells
Type: functional, cell-based
Conditions: not given

SMILES | IC50 [µg/mL]
Oc1ccc(O)cc1 [HYDROQUINONE] | 3 (≈ 27.2 µM)
C=C(CCO)C(=O)OC[C@H]1O[C@@H](Oc2ccc(O)cc2)[C@H](O)[C@@H](O)[C@@H]1O | > 25
C=C(C(=O)OC[C@H]1O[C@@H](Oc2ccc(O)cc2)[C@H](O)[C@@H](O)[C@@H]1O)[C@@H](O)CO | 3 (≈ 7.76 µM)
OC[C@H]1O[C@@H](Oc2ccc(O)cc2)[C@H](O)[C@@H](O)[C@@H]1O [ARBUTIN] | > 25
C=C1CCOC1=O [TULIPALINE A] | 0.8 (≈ 8.15 µM)

Test system: not listed separately
Experiment: Cytotoxicity against african green monkey BSC1 cells at 120 ug/disk
Type: cell-based
Conditions: chlorocebus aethiops, bsc-1

SMILES | Activity [%]
Oc1ccc(O)cc1 [HYDROQUINONE] | 100
C=C(CCO)C(=O)OC[C@H]1O[C@@H](Oc2ccc(O)cc2)[C@H](O)[C@@H](O)[C@@H]1O | 100
C=C(C(=O)OC[C@H]1O[C@@H](Oc2ccc(O)cc2)[C@H](O)[C@@H](O)[C@@H]1O)[C@@H](O)CO | 100
OC[C@H]1O[C@@H](Oc2ccc(O)cc2)[C@H](O)[C@@H](O)[C@@H]1O [ARBUTIN] | 50
C=C1CCOC1=O [TULIPALINE A] | 100

Test system: Bacillus subtilis
Experiment: Antimicrobial activity against Bacillus subtilis at 15 ug/disk
Type: functional
Conditions: read-out: IZ

SMILES | zone of inhibition at 15 µg/disc [mm]
C=C1CCOC1=O [TULIPALINE A] | 0

Test system: not listed separately
Experiment: Cytotoxicity against african green monkey BSC1 cells at 15 ug/disk
Type: cell-based
Conditions: chlorocebus aethiops, bsc-1

SMILES | Activity [%]
C=C(CCO)C(=O)OC[C@H]1O[C@@H](Oc2ccc(O)cc2)[C@H](O)[C@@H](O)[C@@H]1O | 50
C=C1CCOC1=O [TULIPALINE A] | 100

Test system: Bacillus subtilis
Experiment: Antimicrobial activity against Bacillus subtilis at 60 ug/disk
Type: functional
Conditions: read-out: IZ

SMILES | zone of inhibition at 60 µg/disc [mm]
Oc1ccc(O)cc1 [HYDROQUINONE] | 4
C=C(CCO)C(=O)OC[C@H]1O[C@@H](Oc2ccc(O)cc2)[C@H](O)[C@@H](O)[C@@H]1O | 0
C=C(C(=O)OC[C@H]1O[C@@H](Oc2ccc(O)cc2)[C@H](O)[C@@H](O)[C@@H]1O)[C@@H](O)CO | 1
C=C1CCOC1=O [TULIPALINE A] | 0

Test system: Pseudomonas aeruginosa
Experiment: Antimicrobial activity against Pseudomonas aeruginosa at 120 ug/disk
Type: functional
Conditions: read-out: IZ

SMILES | zone of inhibition at 120 µg/disc [mm]
Oc1ccc(O)cc1 [HYDROQUINONE] | 3
C=C(CCO)C(=O)OC[C@H]1O[C@@H](Oc2ccc(O)cc2)[C@H](O)[C@@H](O)[C@@H]1O | 0
C=C(C(=O)OC[C@H]1O[C@@H](Oc2ccc(O)cc2)[C@H](O)[C@@H](O)[C@@H]1O)[C@@H](O)CO | 3
OC[C@H]1O[C@@H](Oc2ccc(O)cc2)[C@H](O)[C@@H](O)[C@@H]1O [ARBUTIN] | 0
C=C1CCOC1=O [TULIPALINE A] | 4

Test system: Pseudomonas aeruginosa
Experiment: Antimicrobial activity against Pseudomonas aeruginosa at 15 ug/disk
Type: functional
Conditions: read-out: IZ

SMILES | zone of inhibition at 15 µg/disc [mm]
C=C1CCOC1=O [TULIPALINE A] | 0

Test system: Trichophyton mentagrophytes
Experiment: Antimicrobial activity against Trichophyton mentagrophytes at 30 ug/disk
Type: functional
Conditions: read-out: IZ

SMILES | zone of inhibition at 30 µg/disc [mm]
Oc1ccc(O)cc1 [HYDROQUINONE] | 0
C=C(CCO)C(=O)OC[C@H]1O[C@@H](Oc2ccc(O)cc2)[C@H](O)[C@@H](O)[C@@H]1O | 0
C=C(C(=O)OC[C@H]1O[C@@H](Oc2ccc(O)cc2)[C@H](O)[C@@H](O)[C@@H]1O)[C@@H](O)CO | 0
C=C1CCOC1=O [TULIPALINE A] | 0

Test system: Trichophyton mentagrophytes
Experiment: Antimicrobial activity against Trichophyton mentagrophytes at 60 ug/disk
Type: functional
Conditions: read-out: IZ

SMILES | zone of inhibition at 60 µg/disc [mm]
Oc1ccc(O)cc1 [HYDROQUINONE] | 0
C=C(CCO)C(=O)OC[C@H]1O[C@@H](Oc2ccc(O)cc2)[C@H](O)[C@@H](O)[C@@H]1O | 0
C=C(C(=O)OC[C@H]1O[C@@H](Oc2ccc(O)cc2)[C@H](O)[C@@H](O)[C@@H]1O)[C@@H](O)CO | 0
C=C1CCOC1=O [TULIPALINE A] | 0

Test system: Escherichia coli
Experiment: Antimicrobial activity against Escherichia coli at 120 ug/disk
Type: functional
Conditions: read-out: IZ

SMILES | zone of inhibition at 120 µg/disc [mm]
Oc1ccc(O)cc1 [HYDROQUINONE] | 5
C=C(CCO)C(=O)OC[C@H]1O[C@@H](Oc2ccc(O)cc2)[C@H](O)[C@@H](O)[C@@H]1O | 0
C=C(C(=O)OC[C@H]1O[C@@H](Oc2ccc(O)cc2)[C@H](O)[C@@H](O)[C@@H]1O)[C@@H](O)CO | 4
OC[C@H]1O[C@@H](Oc2ccc(O)cc2)[C@H](O)[C@@H](O)[C@@H]1O [ARBUTIN] | 0
C=C1CCOC1=O [TULIPALINE A] | 5

Test system: not listed separately
Experiment: Cytotoxicity against african green monkey BSC1 cells at 60 ug/disk
Type: cell-based
Conditions: chlorocebus aethiops, bsc-1

SMILES | Activity [%]
Oc1ccc(O)cc1 [HYDROQUINONE] | 100
C=C(CCO)C(=O)OC[C@H]1O[C@@H](Oc2ccc(O)cc2)[C@H](O)[C@@H](O)[C@@H]1O | 100
C=C(C(=O)OC[C@H]1O[C@@H](Oc2ccc(O)cc2)[C@H](O)[C@@H](O)[C@@H]1O)[C@@H](O)CO | 100
C=C1CCOC1=O [TULIPALINE A] | 100
